Results published in patent publication US6632621B1, “G protein-coupled receptor-like receptors and modulators thereof” (priority 1999, dated 2003).
Like-named read-outs stand apart in the source and are kept apart here. *1 amine or outer side, *2 acyl side, *3 side chain or, on linkers, in order; H or OH if unused. Where no end group is shown, it is not given here. [ ]: non-standard residue; d: D form. Tyr(125I) = 125I-iodinated Tyr, O=C([C@H](Cc1ccc(O[*:3])c([125I])c1)N[*:1])[*:2]; Tyr(3-I) = N[C@@H](Cc1ccc(O)c(I)c1)C(=O)O

How the values were obtained:
[1] = target: T1, CEGPCR12h receptor (Caenorhabditis elegans, UniProt Q20275); test: [35S]GTPγS binding assay, CEGPCR12h expressed in CHO cells; format: biochemical, C. elegans
T1 sequence (Q20275 1-402): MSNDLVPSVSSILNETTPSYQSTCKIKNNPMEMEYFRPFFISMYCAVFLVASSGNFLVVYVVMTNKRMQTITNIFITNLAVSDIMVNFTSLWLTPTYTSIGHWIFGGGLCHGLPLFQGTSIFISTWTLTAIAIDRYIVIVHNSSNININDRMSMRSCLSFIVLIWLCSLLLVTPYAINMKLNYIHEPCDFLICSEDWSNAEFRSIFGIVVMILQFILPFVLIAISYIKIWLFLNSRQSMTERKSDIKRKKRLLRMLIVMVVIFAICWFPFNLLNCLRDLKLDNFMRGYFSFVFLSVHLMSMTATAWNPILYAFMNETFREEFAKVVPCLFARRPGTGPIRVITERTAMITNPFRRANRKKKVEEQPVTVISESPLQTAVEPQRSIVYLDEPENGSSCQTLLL
Experimental: (§1) Recombinant pCR3.1 clones encoding invertebrate GPCR-like receptors were transformed into wild-type CHO-K1 cells and functional expression was achieved using a temperature-shift incubation protocol. The CHO-K1 cells were cultured at 37° C. in a humidified atmosphere of 5% CO2 in air in DMEM medium supplemented with 10% heat-inactivated fetal bovine serum (i.e., FBS), 10 μg/ml gentamicin, and 0.1 mM nonessential amino acids to give complete DMEM medium. Additionally, for incubations at temperatures lower than 37° C., the medium was fortified with 10 mM HEPES (pH 7.4). Cells were transfected with recombinant pCR3.1 clones containing GPCR-like receptor DNAs, using LipofectAMINE PLUS™, essentially according to the manufacturer's instructions. […] In separate plastic tubes, PLUS (20 μl/plate; Life Technologies) was added to 0.75 ml/plate of recombinant plasmid DNA in OptiMEM (5 μg/plate; Gibco/BRL—Life Technologies), mixed and incubated at room temperature for 15 minutes. Separately, LipofectAMINE (30 μl/plate) was mixed with 0.75 ml OptiMEM and added to the pre-complexed DNA/PLUS mixture and incubated at room temperature for 15 minutes. The culture medium was then replaced with serum-free transfection medium (DMEM, 5 ml/plate). The DNA-PLUS-LipofectAMINE complex was then added to the plates (1.5 ml/plate) and mixed gently into the medium, followed by a 3 hour incubation at 37° C. in 5% CO2. At this time, the medium was supplemented with complete DMEM medium containing 20% FBS (6.5 ml/plate) and incubation was continued at 37° C. in 5% CO2. After a total of 24 hours at 37° C. in 5% CO2, the medium was replaced with complete DMEM medium fortified with 10 mM HEPES (10 ml/plate) and the cells were moved to an incubator maintained at 28-30° C. in a humidified atmosphere of 5% CO2 in air. The incubation continued for an additional 24 hours, typically at the lower temperature indicated above. A plasmid encoding Green Fluorescent Protein (i.e., GFP, 4 μg/plate) was used for transient GFP expression in CHO-K1 cells to estimate the transfection yields under the same conditions as used for GPCR-like receptor polynucleotides.
(§2) To assess expression, membranes were prepared from transfected CHO-K1 cells. Transfected cells were washed once with ice-cold Dulbecco's phosphate-buffered saline (i.e., PBS), 5 ml per 10 cm plate, and the cells were scraped into 5 ml of the same buffer. Cell suspensions from multiple plates were combined and centrifuged at 500×g for 10 minutes at 4° C. The cell pellet was reconstituted in ice-cold TEE (25 mM Tris, pH 7.4, 5 mM EGTA, 5 mM EDTA). Convenient aliquots were snap-frozen in liquid nitrogen and stored at −70° C. After thawing, the cells were homogenized and centrifuged at 500×g for 5 minutes at 4° C. to pellet nuclei and unbroken cells. Tile supernatant was centrifuged at 47,000×g for 30 minutes at 4° C. The membrane pellet was washed once with TEE, resuspended in 20 mM HEPES, pH 7.4, 100 mM NaCl, 10 mM MgCl2, 1 mM EDTA (assay buffer), distributed into aliquots of 0.5-1.0 ml, and frozen in liquid nitrogen. Membrane aliquots were stored at −70° C. Membrane protein concentration was determined using the BCA Protein Assay Reagent from Pierce (Rockford, Ill.), with bovine serum albumin (i.e., BSA) as a standard.
(§3) Aliquots of cell membranes prepared as described above and stored at −70° C. were thawed, homogenized, and diluted into buffer containing 20 mM HEPES, pH 7.4, 10 mM MgCl2, 1 mM EDTA, and 100 mM NaCl at a concentration of 10-50 μg/ml. Reaction mixtures were prepared in 96-well polypropylene plate, Nunc. Twenty microliters of a 10× putative modulator compound (including but not limited to potential peptide ligands) solution or a water control (20 μl), 18.2 µM GDP (0.11 ml, 10 μM final concentration), and a membrane preparation were mixed and placed on ice. The modulator/ligand-GDP-membrane mixtures were incubated for 20 minutes at room temperature on a shaking platform and then placed on ice.

[2] = target: T2, CEGPCR4 receptor (Caenorhabditis elegans, UniProt A0A078BTK0); test: [35S]GTPγS binding assay, membranes of CHO cells transfected with CEGPCR4; format: biochemical, C. elegans
T2 sequence (A0A078BTK0 1-376): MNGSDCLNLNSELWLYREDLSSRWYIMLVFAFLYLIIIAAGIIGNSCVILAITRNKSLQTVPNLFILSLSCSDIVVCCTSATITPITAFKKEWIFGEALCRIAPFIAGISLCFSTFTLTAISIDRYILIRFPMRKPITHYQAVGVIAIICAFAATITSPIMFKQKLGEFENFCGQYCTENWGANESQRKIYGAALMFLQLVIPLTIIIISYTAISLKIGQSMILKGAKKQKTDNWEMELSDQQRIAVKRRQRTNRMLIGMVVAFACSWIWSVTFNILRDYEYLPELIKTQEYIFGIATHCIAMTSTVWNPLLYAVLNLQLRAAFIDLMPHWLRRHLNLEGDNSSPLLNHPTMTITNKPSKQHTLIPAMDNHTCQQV
Experimental: Recombinant pCR3.1 clones encoding invertebrate GPCR-like receptors were transformed into wild-type CHO-K1 cells and functional expression was achieved using a temperature-shift incubation protocol. The CHO-K1 cells were cultured at 37° C. in a humidified atmosphere of 5% CO2 in air in DMEM medium supplemented with 10% heat-inactivated fetal bovine serum (i.e., FBS), 10 μg/ml gentamicin, and 0.1 mM nonessential amino acids to give complete DMEM medium. Additionally, for incubations at temperatures lower than 37° C., the medium was fortified with 10 mM HEPES (pH 7.4). Cells were transfected with recombinant pCR3.1 clones containing GPCR-like receptor DNAs, using LipofectAMINE PLUS™, essentially according to the manufacturer's instructions. […] In separate plastic tubes, PLUS (20 μl/plate; Life Technologies) was added to 0.75 ml/plate of recombinant plasmid DNA in OptiMEM (5 μg/plate; Gibco/BRL—Life Technologies), mixed and incubated at room temperature for 15 minutes. Separately, LipofectAMINE (30 μl/plate) was mixed with 0.75 ml OptiMEM and added to the pre-complexed DNA/PLUS mixture and incubated at room temperature for 15 minutes. […]
To assess expression, membranes were prepared from transfected CHO-K1 cells. […] Membrane protein concentration was determined using the BCA Protein Assay Reagent from Pierce (Rockford, Ill.), with bovine serum albumin (i.e., BSA) as a standard. […]

[3] = system: CEGPCR12c; test: [35S]GTPγS binding assay, membranes of CHO cells transfected with CEGPCR12c; format: biochemical, C. elegans
[4] = target: T3, CEGPCR16 receptor (Caenorhabditis elegans, UniProt Q9XXU4); test: [35S]GTPγS binding assay, CEGPCR16 expressed in CHO cells; format: biochemical, C. elegans
T3 sequence (Q9XXU4 1-365): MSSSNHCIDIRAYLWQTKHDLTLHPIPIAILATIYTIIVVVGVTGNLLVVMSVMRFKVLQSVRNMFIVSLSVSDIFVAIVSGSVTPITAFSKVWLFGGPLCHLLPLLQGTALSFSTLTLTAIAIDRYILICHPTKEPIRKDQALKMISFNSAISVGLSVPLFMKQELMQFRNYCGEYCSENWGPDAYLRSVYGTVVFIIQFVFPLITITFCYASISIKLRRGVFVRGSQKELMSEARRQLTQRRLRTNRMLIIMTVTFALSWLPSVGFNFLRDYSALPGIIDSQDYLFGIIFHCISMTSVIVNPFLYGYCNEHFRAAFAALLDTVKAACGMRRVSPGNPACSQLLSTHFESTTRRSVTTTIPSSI
Experimental: as §1, §2, §3

[5] = target: T3, CEGPCR16 receptor; test: as above; format: biochemical, C. elegans; conditions: membranes from cells transfected and maintained at 37° C.
[6] = target: T2, CEGPCR4 receptor; test: Flp18 binding assay: [125I]YDVPGVLRFamide binding and competition on CEGPCR4/CHO membranes; design: species or system C. elegans; conditions: in words
Experimental: A peptide ligand screening assay that measures ligand binding to a suitable GPCR-like receptor according to the invention is exemplified using a modified C. elegans Flp18 peptide ligand.
Membranes for use in the assay are derived from cells stably transfected with a GPCR-like receptor expression construct. The transfected cells are grown in 10 cm dishes to subconfluence, rinsed once with 5 ml of ice-cold Ca^2+/Mg^2+—free PBS, and scraped into 5 ml of the same buffer. Cells are pelleted by centrifugation (500×g, 5 minutes), resuspended in 25 mM Tris, pH 7.5, 5 mM EDTA, 5 mM EDTA, pH 7.5 (TEE), and frozen in liquid nitrogen. After thawing, the cells are homogenized using a Dounce homogenizer (one ml TEE per plate of cells), and centrifuged at 1,000×g for 5 minutes to remove nuclei and unbroken cells.
The homogenate supernatant is centrifuged at 20,000×g for 20 minutes to isolate the membrane fraction, and the membrane pellet is washed once with TEE and resuspended in binding buffer (20 mM HEPES, pH 7.5, 150 mM NaCl, 10 mM MgCl2, 1 mM EDTA). […]
The peptide ligand screening assay is facilitated by use of 96-well plates Millipore Multiscreen® filtration plates (FB opaque 1.0 μM glass fiber type B, catalog number MAFBNOB50). […] The following day, the plate is counted in a Microbeta® scintillation counter.

[7] = target: human D2 receptor (Homo sapiens, UniProt P14416); conditions: 37° C. versus temperature-shift transfection protocol
Experimental: as §3

[8] = target: T4, CEGPCR5 (Caenorhabditis elegans, UniProt Q18179); test: [35S]GTPγS binding assay, CEGPCR5 expressed in CHO cells; format: biochemical, C. elegans
T4 sequence (Q18179 1-402): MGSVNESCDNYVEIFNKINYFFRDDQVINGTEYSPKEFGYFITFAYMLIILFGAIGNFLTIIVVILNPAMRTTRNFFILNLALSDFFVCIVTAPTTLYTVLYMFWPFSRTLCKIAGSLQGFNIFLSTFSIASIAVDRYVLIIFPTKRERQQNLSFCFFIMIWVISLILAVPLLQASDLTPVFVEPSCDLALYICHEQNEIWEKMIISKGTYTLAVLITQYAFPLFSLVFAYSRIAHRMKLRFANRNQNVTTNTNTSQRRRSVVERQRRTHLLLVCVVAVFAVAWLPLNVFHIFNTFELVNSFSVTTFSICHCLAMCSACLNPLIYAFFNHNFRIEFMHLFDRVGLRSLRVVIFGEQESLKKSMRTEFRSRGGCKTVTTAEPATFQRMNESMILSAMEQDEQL

[9] = target: T4, CEGPCR5; test: as above; format: biochemical, C. elegans; conditions: membranes from cells transfected and maintained at 37° C.
[10] = target: T5, CEGPCR7 receptor (Caenorhabditis elegans, UniProt Q18534); test: [35S]GTPγS binding assay, membranes of CHO cells transfected with CEGPCR7; format: biochemical, C. elegans
T5 construct: Each of the 22 putative GPCR-like receptor clones appeared to contain a full-length coding region; expressed in transfected cells; host or cells: CHO-K1, transient, pCR3.1 clone, 37 to 28 C temperature shift
T5 sequence (Q18534 1-457): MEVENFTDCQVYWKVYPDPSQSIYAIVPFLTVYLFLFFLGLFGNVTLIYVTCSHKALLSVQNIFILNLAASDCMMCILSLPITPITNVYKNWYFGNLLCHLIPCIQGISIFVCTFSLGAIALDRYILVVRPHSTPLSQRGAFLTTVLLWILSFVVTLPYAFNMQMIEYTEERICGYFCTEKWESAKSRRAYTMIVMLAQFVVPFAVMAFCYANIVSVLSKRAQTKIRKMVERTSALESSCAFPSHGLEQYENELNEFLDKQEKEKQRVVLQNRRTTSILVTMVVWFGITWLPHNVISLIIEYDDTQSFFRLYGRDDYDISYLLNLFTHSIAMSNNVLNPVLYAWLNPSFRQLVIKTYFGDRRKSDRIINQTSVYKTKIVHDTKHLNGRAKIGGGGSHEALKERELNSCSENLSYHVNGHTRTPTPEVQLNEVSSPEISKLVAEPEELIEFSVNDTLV
Experimental: as §1, §2
Aliquots of cell membranes prepared as described above and stored at −70° C. were thawed, homogenized, and diluted into buffer containing 20 mM HEPES, pH 7.4, 10 mM MgCl2, 1 mM EDTA, and 100 mM NaCl at a concentration of 10-50 μg/ml.

[11] = target: T6, CEGPCR7 (C. elegans), Q18534; test: cell-based or functional assay
T6 chain: T5 sequence (Q18534 1-457)

[12] = target: T7, CEGPCR4 (C. elegans); test: radioligand binding to CEGPCR4/CHO membranes
T7 construct: Expressed in CHO cells; also called CEGPCR4 receptor; CEGPCR4/CHO membranes
T7 chain: T2 sequence (A0A078BTK0 1-376)

[13] = membranes from cells transfected and maintained at 37° C.
[14] = temperature shift to 28° C. 24 hours after transfection

Sequence of human D2 receptor (P14416 whole entry): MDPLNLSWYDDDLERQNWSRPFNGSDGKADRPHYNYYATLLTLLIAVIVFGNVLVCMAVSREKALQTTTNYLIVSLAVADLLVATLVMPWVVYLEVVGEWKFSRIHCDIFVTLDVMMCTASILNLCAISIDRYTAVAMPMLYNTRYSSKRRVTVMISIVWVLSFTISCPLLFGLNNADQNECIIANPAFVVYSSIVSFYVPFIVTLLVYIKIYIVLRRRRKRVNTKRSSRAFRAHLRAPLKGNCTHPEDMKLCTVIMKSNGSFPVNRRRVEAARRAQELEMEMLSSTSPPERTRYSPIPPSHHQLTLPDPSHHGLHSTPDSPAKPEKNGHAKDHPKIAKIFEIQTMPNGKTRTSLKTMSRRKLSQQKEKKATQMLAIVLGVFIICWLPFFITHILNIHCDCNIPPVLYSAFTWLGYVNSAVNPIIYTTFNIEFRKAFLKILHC

## PDVDHVFLRF-NH2 [PDVDHVFLRF-NH2]
[1]; EC50
  EC50: 330 nM
[1]; EC50 range, Table 11, one range for the group, results apply to all CEGPCR12 isoforms
  EC50: 300 to 500 nM
[2]; [13]
  receptor activation by matched ligand: not detectably activated
[2]; [14]
  ligand-induced [35S]GTPγS binding: significant stimulation
[3]; [13]
  receptor activation by matched ligand: not detectably activated
[3]; [14]
  ligand-induced [35S]GTPγS binding: significant stimulation

## ASEDALFGTMRF-NH2 [ASEDALFGTMRF-NH2]
[4]; Table 10, one range for the group of peptides, read-out: EC50 range
  EC50: 60 to 300 nM
[4]; [14]
  ligand-induced [35S]GTPγS binding: significant stimulation
[5]
  receptor activation by matched ligand: not detectably activated

## [^125I-Y]DVPGVLRF-NH2 ([Tyr(125I)]DVPGVLRF-NH2)
[6]
  Kd, binding to the CEGPCR4/CHO membranes: subnanomolar range

## NCCc1ccc(O)c(O)c1 [dopamine]
[7]
  responses of the receptor to its ligand: the same regardless of the transfection protocol used

## H-GLGPRPLRF-NH2 [GLGPRPLRF-NH2]
[1]; Table 11, peptides tested at 5 μM
  activity at single concentration: active at
[8]
  EC50: 1 to 10 nM
[8]; in words
  EC50: low nanomolar range
[8]; [14]
  ligand-induced [35S]GTPγS binding: significant stimulation
[9]
  receptor activation by matched ligand: not detectably activated
[10]; EC50, single values
  EC50: 207 nM
[10]; EC50 range, Table 7, one range for the group of peptides
  EC50: 200 to 250 nM
[10]; cooling (28° C.) protocol
  ligand-induced [35S]GTPγS binding, fold elevation in activity: 2.6 fold

## GLGPRPLRF-NH2 […-NH2 (AF9)]
[11]
  AF9-induced [35S]GTPγS binding, constant 37° C. (third experiment): 1.4 fold

B1: 3-Iodo-Y-DVPGVLRF-NH2 (peptide)
peptide: [Tyr(3-I)]DVPGVLRF-NH2
modifications: N-terminus assumed
SMILES: CC(C)C[C@H](NC(=O)[C@@H](NC(=O)CNC(=O)[C@@H]1CCCN1C(=O)[C@@H](NC(=O)[C@H](CC(=O)O)NC(=O)[C@@H](N)Cc1ccc(O)c(I)c1)C(C)C)C(C)C)C(=O)N[C@@H](CCCNC(=N)N)C(=O)N[C@@H](Cc1ccccc1)C(N)=O
notes: Synthetic flp18 analog; the radioiodinated form is treated as the same molecule
[12]
  Kd: < 1 nM
